According to patent US8329645B2, “Polymyxin derivatives and uses thereof” (priority 2008, dated 2012):
“And” between values parts separate entries of the source, which are not always exact repeats. Equal entries are not always repeated.

Assays:
E. coli ATCC25922 [1] = conditions: E. coli ATCC25922
Procedure: (§1) MICs were determined by using E-strips (Biodisk Ltd., Solna, Sweden) according to the manufacturer's instructions.
(§2) The strains originated from ATCC (11 strains), CCUG (11 strains), and NCTC (The National Collection of Type Cultures, Colindale, U.K.; 2 strains). Eight strains (the F-strains) were purchased from Mobidiag Ltd., Helsinki, Finland.

K. pneumoniae ATCC13883 [2] = conditions: K. pneumoniae ATCC13883
Procedure: as §1, §2

E. coli IH3080 [3] = experiment: E-test MIC with or without NAB7061 (4 μg/ml), Mueller-Hinton agar; assay type: cell-based, Escherichia coli
Procedure: as §1, §2

E. coli IH3080 (K1:O18) = experiment: Experimental E. coli peritonitis model in mice (Example 12); assay type: in vivo
Procedure: A suspension of E. coli IH3080 (K1:O18) in saline (0.9% NaCl) was prepared from an overnight culture on a blood agar plate (Statens Serum Institut, Copenhagen, Denmark). All mice (female NMR1 from Harlan Scandinavia, Allerød, Denmark; weight, 25-30 g) were inoculated intraperitoneally with 0.5 ml of the suspension containing 0.96×10^6 CFU per ml in the lateral lower quadrant of the abdomen. At 1 h, the CFU count was determined from three mice and the remaining mice (four mice per group) were treated with a subcutaneous injection of 0.2 ml of erythromycin solution in saline (corresponding to 5 mg/kg body weight) or NAB7061 solution in saline (corresponding to 5 mg/kg body weight), or both erythromycin and NAB7061 (corresponding to 5 mg/kg body weight of both drugs; given at two separate sites). Control group received two 0.2 ml injections of saline. At 4.5 h postinfection, all mice were anaesthetized with CO2 and sacrificed. Sterile saline (2 ml) was injected intraperitoneally and the abdomen was gently massaged before it was opened and the fluid sampled. Appropriate dilutions of the fluid were plated on blood agar plates, the plates were incubated overnight, and the colonies were counted.

[4] = tested on: E. coli (ATCC25922 and IH3080), K. pneumoniae ATCC13883, and E. cloacae ATCC23355; experiment: E-test sensitization by NAB7061, range over the tested strains; assay type: cell-based; conditions: four tested strains
Procedure: as §1

E. cloacae ATCC23355 [5] = experiment: E-test MIC with or without NAB7061 (4 μg/ml), Mueller-Hinton agar; assay type: cell-based, Enterobacter cloacae
Procedure: as §1, §2

A. baumannii ATCC 19606 = experiment: Sensitization to rifampin: growth inhibition around wells on LB plates containing rifampin; assay type: cell-based, Acinetobacter baumannii; conditions: 4 μg
[6] = tested on: Acinetobacter baumannii ATCC 19606; experiment: Growth inhibition around wells on LB agar plates; assay type: cell-based; conditions: A. baumannii ATCC 19606
S. aureus ATCC 25923 = experiment: Growth inhibition around wells on LB agar plates; assay type: cell-based, Staphylococcus aureus
Procedure: (§3) From an overnight-grown culture of IH3080 on LB agar, a suspension of approx. 10^8 cells/ml was prepared in 0.9% NaCl. Aliquots of this suspension were then pipetted on the agar plates and the plates were gently shaken to spread the suspension evenly on the entire surface of the plate. Thereafter, the unabsorbed part of the suspension was removed by using a Pasteur pipette. After the surface had dried, small wells (diameter, 2 mm) were drilled on the plates (five wells per plate) by using a sterile sharp-edged narrow metal tube, single-use pipette tip, and vacuum suction. An alternative method used a swab to spread the inoculum. Samples (4 μl and 10 μl) of the peptide solution in 0.9% NaCl (at concentrations of 1 μg/ml and 0.1 μg/ml) were then pipetted to the wells and the sample fluids were allowed to absorb. Controls included 0.9% NaCl solution without the compound to be tested. The plates were then incubated for 18 h at 37° C. whereafter the diameters of growth inhibition zones around each well were measured; the diameter of the well itself was not reduced. Finally, the diameters were converted to surface areas of growth inhibition (in square mm).
(§4) The susceptibility of eleven Gram-negative bacterial strains (nine different species) to NAB734 and polymyxin B was compared by using the susceptibility determination method described in Example 2. The strains included those belonging to the species of Serratia marcescens and Proteus mirabilis, both species generally known to be resistant to polymyxin. Furthermore, the susceptibility determination was also performed by using the Gram-positive bacterium, Staphylococcus aureus, also generally known to be polymyxin-resistant. Ten of the strains originated from ATCC (American Type Culture Collection, Manassas, Va., U.S.A.), and one from CCUG (Culture Collection of University of Gothenburg, Sweden). The source of E. coli IH3080 has been described in Example 2. Polymyxin B sulfate was from Sigma-Aldrich (St. Louis, Mo., USA).

E. coli IH3080 [7] = experiment: Growth inhibition around wells on LB agar plates; assay type: cell-based, Escherichia coli; conditions: 10 μg of compound per well
How it was run: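 Growth inhibition of encapsulated E. coli IH3080 (K1:O018) was assessed on LB agar plates. A suspension of about 10^8 cells/ml in 0.9% NaCl, made from an overnight LB agar culture, was spread across the plate surface and the excess removed. After drying, 2 mm wells were drilled, with 0.9% NaCl as control. Following 18 h at 37° C., inhibition zone diameters around wells were converted to areas in square mm.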

S. marcescens ATCC8100 = experiment: Growth inhibition around wells on LB agar plates; assay type: cell-based, Serratia marcescens
Procedure: as §3, §4

E. coli IH3080 [8] = experiment: Sensitization to rifampin: growth inhibition around wells on LB plates containing rifampin; assay type: cell-based, Escherichia coli; conditions: 4 μg of compound
P. mirabilis ATCC29906 = experiment: Growth inhibition around wells on LB agar plates; assay type: cell-based, Proteus mirabilis
Procedure: as §3, §4

K. pneumoniae CCUG45421 = experiment: Growth inhibition around wells on LB agar plates; assay type: cell-based, Klebsiella pneumoniae
Procedure: as §3, §4

K. pneumoniae ATCC13883 [9] = experiment: Growth inhibition around wells on LB agar plates; assay type: cell-based, Klebsiella pneumoniae
Procedure: as §3, §4

[10] = tested on: Pseudomonas aeruginosa ATCC 27853; experiment: Growth inhibition around wells on LB agar plates; assay type: cell-based; conditions: Ps. aeruginosa ATCC 27853
How it was run: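 Activity against Pseudomonas aeruginosa ATCC 27853 was assessed by agar well diffusion on LB plates. A suspension of about 10^8 cells/ml in 0.9% NaCl was spread over the agar and the excess removed. Once the surface had dried, 2 mm wells were drilled and filled with peptide dissolved in 0.9% NaCl. Plates were incubated 18 h at 37° C, and inhibition zone diameters were converted to areas in square mm.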

[11] = tested on: Ps. aeruginosa ATCC 27853; experiment: Sensitization to rifampin: growth inhibition around wells on LB plates containing rifampin; assay type: cell-based, Pseudomonas aeruginosa; conditions: 4 μg
C. freundii ATCC8090 = experiment: Growth inhibition around wells on LB agar plates; assay type: cell-based, Citrobacter freundii
Procedure: as §3, §4

E. coli ATCC25922 [12] = experiment: Growth inhibition around wells on LB agar plates; assay type: cell-based, Escherichia coli
Procedure: as §3, §4

E. cloacae ATCC23355 [13] = experiment: Growth inhibition around wells on LB agar plates; assay type: cell-based, Enterobacter cloacae
Procedure: as §3, §4

K. oxytoca ATCC13182 = experiment: Growth inhibition around wells on LB agar plates; assay type: cell-based, Klebsiella oxytoca
Procedure: as §3, §4

## CC[C@H]1OC(=O)[C@H](C)[C@@H](O[C@H]2C[C@@](C)(OC)[C@@H](O)[C@H](C)O2)[C@H](C)[C@@H](O[C@@H]2O[C@H](C)C[C@H](N(C)C)[C@H]2O)[C@](C)(O)C[C@@H](C)C(=O)[C@H](C)[C@@H](O)[C@]1(C)O [Erythromycin]
E. coli ATCC25922 [1]
  Sensitization factor to antibiotic (MIC without / with 4 μg/ml of NAB 7061): 32-48
K. pneumoniae ATCC13883 [2]
  Sensitization factor to antibiotic (MIC without / with 4 μg/ml of NAB 7061): 24-48
E. coli IH3080 [3]
  Sensitization factor to antibiotic (MIC without / with 4 μg/ml of NAB 7061): 32-42
E. coli IH3080 (K1:O18); 4.5 h postinfection ([…] after treatment), 5 mg/kg subcutaneous
  CFU counts in peritoneal fluid: 8.9 (±6.4)×10^6 per ml
E. coli IH3080 (K1:O18); from 1 h to 4.5 h postinfection
  factor by which the bacterial count increased: 12
[4]
  Sensitization factor to antibiotic at 4 μg/ml of NAB7061, range over the tested strains: 21-48
E. cloacae ATCC23355 [5]
  Sensitization factor to antibiotic (MIC without / with 4 μg/ml of NAB 7061): 21-43

## OA-Thr-DSer-cy[Dab-Dab-DPhe-Thr-Dab-Dab-Thr-] [NAB 734]
A. baumannii ATCC 19606; rifampin 0 μg/ml
  growth inhibition around a well in the presence of rifampin: 38 square millimeters
A. baumannii ATCC 19606; rifampin 0.1 μg/ml
  growth inhibition around a well in the presence of rifampin: 201 square millimeters
A. baumannii ATCC 19606; rifampin 0.3 μg/ml
  growth inhibition around a well in the presence of rifampin: 283 square millimeters
[6]; 4 μg
  growth inhibition around a well: 38 square millimeters and 57 square millimeters
[6]; 10 μg
  growth inhibition around a well: 95 square millimeters and 79 square millimeters
S. aureus ATCC 25923; 4 μg
  growth inhibition around a well: 0 square millimeters
S. aureus ATCC 25923; 10 μg
  growth inhibition around a well: 0 square millimeters
E. coli IH3080 [7]
  growth inhibition around a well: 177 square millimeters
S. marcescens ATCC8100; 4 μg
  growth inhibition around a well: 0 square millimeters
S. marcescens ATCC8100; 10 μg
  growth inhibition around a well: 0 square millimeters
E. coli IH3080 [8]; rifampin 0 μg/ml
  growth inhibition around a well in the presence of rifampin: 113 square millimeters
E. coli IH3080 [8]; rifampin 0.1 μg/ml
  growth inhibition around a well in the presence of rifampin: 154 square millimeters
E. coli IH3080 [8]; rifampin 1.0 μg/ml
  growth inhibition around a well in the presence of rifampin: 201 square millimeters
P. mirabilis ATCC29906; 4 μg
  growth inhibition around a well: 0 square millimeters
P. mirabilis ATCC29906; 10 μg
  growth inhibition around a well: 0 square millimeters
K. pneumoniae CCUG45421; 4 μg
  growth inhibition around a well: 64 square millimeters
K. pneumoniae CCUG45421; 10 μg
  growth inhibition around a well: 104 square millimeters
K. pneumoniae ATCC13883 [9]; 4 μg
  growth inhibition around a well: 64 square millimeters
K. pneumoniae ATCC13883 [9]; 10 μg
  growth inhibition around a well: 113 square millimeters
[10]; 4 μg
  growth inhibition around a well: 13 square millimeters
[10]; 10 μg
  growth inhibition around a well: 50 square millimeters
[11]; rifampin 0 μg/ml
  growth inhibition around a well in the presence of rifampin: 13 square millimeters
[11]; rifampin 0.3 μg/ml
  growth inhibition around a well in the presence of rifampin: 20 square millimeters
C. freundii ATCC8090; 4 μg
  growth inhibition around a well: 133 square millimeters
C. freundii ATCC8090; 10 μg
  growth inhibition around a well: 177 square millimeters
E. coli ATCC25922 [12]; 4 μg
  growth inhibition around a well: 133 square millimeters
E. coli ATCC25922 [12]; 10 μg
  growth inhibition around a well: 177 square millimeters
E. cloacae ATCC23355 [13]; 4 μg
  growth inhibition around a well: 133 square millimeters
E. cloacae ATCC23355 [13]; 10 μg
  growth inhibition around a well: 177 square millimeters
K. oxytoca ATCC13182; 4 μg
  growth inhibition around a well: 95 square millimeters
K. oxytoca ATCC13182; 10 μg
  growth inhibition around a well: 143 square millimeters
